Assays:
AR = target: T1, AR (Homo sapiens, UniProt P10275); experiment: AR transcriptional output, ARE-luciferase assay in HEK 293T cells; type: cell-based
T1 construct: host or cells: HEK 293T
T1 sequence (P10275 1-920): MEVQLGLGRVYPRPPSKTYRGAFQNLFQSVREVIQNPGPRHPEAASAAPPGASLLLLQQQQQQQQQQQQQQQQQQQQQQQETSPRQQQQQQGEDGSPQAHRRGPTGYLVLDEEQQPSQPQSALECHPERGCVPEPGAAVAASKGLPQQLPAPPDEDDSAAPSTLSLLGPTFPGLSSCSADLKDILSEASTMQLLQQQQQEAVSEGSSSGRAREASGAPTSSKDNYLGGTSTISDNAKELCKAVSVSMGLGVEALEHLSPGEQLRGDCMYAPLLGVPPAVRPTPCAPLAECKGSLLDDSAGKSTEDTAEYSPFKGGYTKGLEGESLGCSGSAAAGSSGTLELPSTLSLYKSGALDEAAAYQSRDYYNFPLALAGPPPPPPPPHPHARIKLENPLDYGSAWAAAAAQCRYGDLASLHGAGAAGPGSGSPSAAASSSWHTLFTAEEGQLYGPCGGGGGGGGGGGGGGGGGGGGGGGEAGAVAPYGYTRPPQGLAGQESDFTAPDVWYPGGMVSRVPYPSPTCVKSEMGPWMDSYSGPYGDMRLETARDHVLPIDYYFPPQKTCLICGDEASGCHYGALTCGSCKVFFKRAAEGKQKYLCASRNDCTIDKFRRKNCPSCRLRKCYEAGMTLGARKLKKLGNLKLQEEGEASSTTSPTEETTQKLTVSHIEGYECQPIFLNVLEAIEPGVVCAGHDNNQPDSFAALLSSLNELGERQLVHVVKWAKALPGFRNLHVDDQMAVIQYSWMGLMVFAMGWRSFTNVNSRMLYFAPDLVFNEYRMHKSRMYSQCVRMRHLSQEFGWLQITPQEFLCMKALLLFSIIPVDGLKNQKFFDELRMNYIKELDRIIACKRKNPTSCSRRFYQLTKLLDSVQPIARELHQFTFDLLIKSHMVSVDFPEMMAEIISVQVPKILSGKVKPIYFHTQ
Description: 100% is set to the activity with 200 μM testosterone, and 0% is set to the basal level (no ligand).
Cells were maintained in steroid free media, and stimulated with 200 μM testosterone, followed immediately by administration of exemplary compounds (Table 1, below). RLU is relative luciferase units, relative to DMSO control with 200 μM testosterone alone. Data represent an average of 3 independent experiments performed in triplicate wells per compounds at 10 μM.
Cells were maintained in steroid-free media, and stimulated with 200 μM testosterone, followed immediately by administration of a test compound. […] Compounds were dosed at 10 μM in FIGS. 6A and 6B.
Cells were maintained in steroid-free media, and stimulated with 200 μM testosterone, followed immediately by administration of a test compound.

[1] = Pharmacokinetics in non-tumor bearing BALB/C mice, IV and PO; type: in vivo; conditions: for Cmax—D: dose-normalised; for Tmax / half-life: mouse, plasma
Description: FIG. 14A-B are graphs of time (hours) versus plasma concentration (ng/mL) for intravenous (IV) (FIG. 14A) and oral (PO) (FIG. 14B) administration of 15a and 15n over 12 hours. Error bars represent the standard deviation in ng/mL from three independent mice per time point.
Clearance, Cmax, half life, dose/AUC, and bioavailability were calculated by statistical analysis using PHOENIX™ WINNONLIN™ v7.0 (Certara, Princeton, N.J.). The results are shown in FIGS. 14A and 14B and Table 4.

For `CC1(C)C(=O)N(c2ccc(C#N)c(C(F)(F)F)c2)C(=S)N1Cc1ccc(-c2c[nH]nn2)cc1` [Compound 15a, 4-(3-(4-(1H-1,2,3-triazol-4-yl)benzyl)-4,4-dimethyl-5-oxo-2-thioxoimidazolidin-1-yl)-2-(trifluoromethyl)benzonitrile], the “antagonist or inverse agonist activity on AR transcriptional activity (in words)” value (AR; 10 μM, HEK 293T, FIG. 6A) was “reduced the transcriptional activity of the AR well below the expression in the absence of any steroids or ligands”, the activity at 10 µM (AR; HEK-293T, read-out: AR antagonist activity (% RLU)) was -109% and the “Cmax—D” value ([1]; IV, 1 mg/kg) was 453 kg·ng/mL/mg. The “Cmax—D” value ([1]; PO, 20 mg/kg) was 412 kg·ng/mL/mg, the Tmax ([1]; IV, 1 mg/kg) was 2 h and the half-life ([1]; IV, 1 mg/kg) was 18 h. It also gave a Tmax ([1]; PO, 20 mg/kg) of 2 h and a half-life ([1]; PO, 20 mg/kg) of 20.6 h.

— patent publication US20230135524A1, “ARYL HYDANTOIN HETEROCYCLES AND METHODS OF USE” (The United States of America,as represented by the …, priority 2020, published 2023)
